According to patent US20240150387A1, “GLUCOCEREBROSIDE COMPOUND, PHARMACEUTICAL COMPOSITION THEREOF AND USE THEREOF” (DONGGUAN HEC CORDYCEPS R&D CO., LTD., priority 2021, published 2024):

Experiments:
[1] = test system: spleen lymphocytes induced by Con A; assay: Detection of cell proliferation inhibition: Con A-induced spleen lymphocyte proliferation (CCK-8); type: cell-based; conditions: Mus musculus; for inhibition at 2 µM: concentration 2 μM; for inhibition at 2 µM / inhibition at 4 µM / inhibition at 8 µM / inhibition at 16 µM / inhibition at 32 µM / inhibition at 64 µM: read-out: Inhibitory rate (%) on the proliferation of spleen lymphocytes induced by Con A; for inhibition at 4 µM: concentration 4 μM; for inhibition at 8 µM: concentration 8 μM; for inhibition at 16 µM: concentration 16 μM; for inhibition at 32 µM: concentration 32 μM; for inhibition at 64 µM: concentration 64 μM; for IC50: linear fit of inhibition rate against log concentration, ConA final 7.5 μg/mL, 48 h
Protocol: (§1) 3.2.1 Cell acquisition: BABL/C male mice ere sacrificed after eyeball extraction and bloodletting, soaked in 75% ethanol for 10 mint, and the spleen was aseptically removed in an ultra-clean workbench, and placed in a petri dish filled with PBS. A syringe was used to absorb PBS to rinse the surface and interior of the spleen until the spleen turned white, then the spleen was gently torn up with tweezers. The spleen was gently crushed with a 5 mL syringe on the steel mesh to make a single-cell suspension, which was filtered through a 200-mesh sieve. The filtrate was centrifuged for 10 min (1000 rpm/min); after centrifugation, the supertnatant was discarded. After the cell pellet was resuspended with PBS, the mixture was centrifuged again for 10 min (1000 rpm/min), and the operation was repeated once; 2 mL of erythrocyte lysate was added to the cell pellet. After the mixture was mixed evenly and allowed to stand for 5 min, 8 mL of PBS was added to nx evenly, and then the mixture was centrifuged at 1000 rpm min for 5 min. After centrifugation, the supernatant was discarded, the cell pellet was resuspended with PBS, then the mixture was centrifuged again for 10 min (1000 rpm/min), and the operation was repeated once; after centrifugation, the supematant ias discarded, the cell pellet was suspended in 1 mL of RPMI-1640 complete medium (containing 10% fetal bovine serum and 1% double antibody). 2-3 mL medium was added to dilute. A cell counter was used for cell counting (new cell type), and complete medium was used to adjust the cell concentration to 2*10^6 cells/mL.
(§2) 3.2.2 Stunple preparation: appropriate amount of compounds 1, 2, 3, and 4 were dissolved in DMSO respectively to prepare 64 mM mother solution, and then diluted with medium to obtain solutions with a concentration of 128 μM respectively, and then gradiently diluted with medium to obtain sample dilutions with concentrations of 64 μM, 32 μM, 16 μM, 8 μM, and 4 μM, respectively.
3.2.4 Detection of cell proliferation inhibition: the prepared cell suspension was added to the 96-well plate. The seeding cell density was 2*10^5 cells/well, and the added cell volume was 100 μL. Samples were added at 100 μL, with 5 replicate wells for each concentration, and then incubated in a 37° C., 5% CO2 incubator for 12 h. 10 μL of the supernatant were carefully suck out. 10 μL ConA with a concentration of 150 μg/mL (final concentration: 7.5 μg/mL) was added to the corresponding group, and then the mixture was incubated in a 37° C., 5% CO2 incubator for 48 h, and finally incubated in a 37° C. incubator for 4-5 hours with serum-free medium and 10% CCK-8. The absorbance (A) value of each well was detected at 450 nm by a microplate reader. A negative control group and a model control group were set up, which were cells+1640 medium, cells+ConA+1640 medium, respectively.
The proliferation inhibition rate of the sample to spleen lymphocytes was calculated according to the following formula:
Proliferation inhibition rate %=[(Am−As)/(Am−Ac)]×100% • Am: Absorbance of model control group (spleen lymphocytes+ConA+CCK-8) • As: Absorbance of sample group (spleen lymphocytes+samples to be tested+ConA+CCK-8) • Ac: Absorbance of negative control group (spleen lymphocytes+CCK-8)
The experimental results of compounds 1. 2, 3.

spleen lymphocytes = assay: Detection of cell viability (CCK-8) of spleen lymphocytes; type: cell-based, mouse; conditions: 64, 32, 16, 8, 4, and 2 μM; 60 h incubation; compared with the control group
Protocol: as §1, §2
3.2.3 Detection of cell viability: the prepared cell suspension was added to a 96-well plate. The seeding cell density was 2*10^5 cells/well, and the added cell volume was 100 μL. Compounds 1, 2, 3, and 4 were added at 100 μL/well, with 5 replicate wells for each concentration, and then incubated in a 37° C. 5% CO2 incubator for 60 h, and then incubated in a 37° C. incubator for 4-5 hours with serum-free medium and 10% CCK-8. The absorbance (A) value of each well was detected at 450 nm by a inicroplate reader. […]
3.2.5 Data processing: the proliferation rate (viability) of the sample to spleen hymphocytes was calculated according to the following formula:
Proliferation rate %=[As/Ac]×100% • As: Absorbance of sample group (spleen lymphocytes+samples to be tested+CCK-8) • Ac: Absorbance of control group (spleen lymphocytes+CCK-8)

Row | SMILES | inhibition at 2 µM [1] [%] | inhibition at 4 µM [1] [%] | inhibition at 8 µM [1] [%] | inhibition at 16 µM [1] [%] | inhibition at 32 µM [1] [%] | inhibition at 64 µM [1] [%] | IC50 [1] [µM] | cytotoxic effect on spleen lymphocytes (spleen lymphocytes)
1 | CCCCCCCCCCC/C=C/[C@@H](O)C(=O)N[C@@H](CO[C@@H]1O[C@H](CO)[C@@H](O)[C@H](O)[C@H]1O)[C@H](O)/C=C/CC/C=C(\C)CCCCCCCCC [Compound 2] | 43.7 | 54.3 | 77.7 | 100 | 126 | 140 | 10.4 | no cytotoxic effect
2 | CCCCCCCCCCCCC/C=C/[C@@H](O)C(=O)N[C@@H](CO[C@@H]1O[C@H](CO)[C@@H](O)[C@H](O)[C@H]1O)[C@H](O)/C=C/CC/C=C(\C)CCCCCCCCC [Compound 1] | 130 | 136 | 146 | 150 | 148 | 152 | 4 | no cytotoxic effect
3 | CCCCCCCCC/C=C/CC/C=C/[C@@H](O)[C@H](CO[C@@H]1O[C@H](CO)[C@@H](O)[C@H](O)[C@H]1O)NC(=O)[C@H](O)/C=C/CCCCCCCCCCCC [Compound 3] | 4.5 | 30.9 | 37.4 | 52 | 84.2 | 123 | 19.5 | no cytotoxic effect
4 | CCCCCCCCCCCCCCCC(=O)N[C@@H](CO[C@@H]1O[C@H](CO)[C@@H](O)[C@H](O)[C@H]1O)[C@H](O)/C=C/CC/C=C(\C)CCCCCCCCC [Compound 4] | 72.2 | 70.7 | 100 | 102 | 120 | 120 | 1.5 | no cytotoxic effect
